# Measurements from ChEMBL document CHEMBL5465560, “Selectivity Literature for EUbOPEN Chemogenomic Library” (2024).
# Key:
# [1] = target: T1, Rho-associated protein kinase 2 (Homo sapiens, UniProt O75116); conditions: at 10 µM
# [2] = tested on: Hepatocyte growth factor receptor (Homo sapiens), P08581 [D1228H]; assay: Selectivity interaction (LanthaScreen Eu Kinase Binding Assay) EUB0001632a MET; conditions: at 10 µM
# [3] = target: Serine/threonine-protein kinase NIM1 (Homo sapiens, UniProt Q8IY84); assay: Selectivity interaction (Kinase panel (Z-LYTE Assay)) EUB0001632a NIM1K; conditions: at 10 µM
# [4] = tested on: Epidermal growth factor receptor (Homo sapiens), P00533 [G719C]; conditions: at 10 µM
# [5] = target: T2, Phosphatidylinositol 5-phosphate 4-kinase type-2 beta (Homo sapiens) (UniProt P78356); assay: Selectivity interaction (KinomeScan (DiscoverX)) EUB0000229b PIP4K2B; conditions: at 10 µM
# T2 sequence (whole entry): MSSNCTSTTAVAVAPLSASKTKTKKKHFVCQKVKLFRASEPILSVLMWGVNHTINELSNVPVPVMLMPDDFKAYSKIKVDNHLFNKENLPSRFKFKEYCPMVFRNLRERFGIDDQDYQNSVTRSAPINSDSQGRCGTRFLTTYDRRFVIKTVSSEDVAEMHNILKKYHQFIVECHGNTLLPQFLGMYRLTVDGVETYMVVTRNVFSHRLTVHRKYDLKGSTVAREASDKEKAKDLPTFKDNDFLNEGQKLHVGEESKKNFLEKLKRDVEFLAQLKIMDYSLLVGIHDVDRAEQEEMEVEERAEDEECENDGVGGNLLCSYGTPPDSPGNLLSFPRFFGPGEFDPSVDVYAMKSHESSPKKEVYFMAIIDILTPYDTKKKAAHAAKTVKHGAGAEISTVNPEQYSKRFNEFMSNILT
# [6] = target: Phosphatidylinositol 4-phosphate 3-kinase C2 domain-containing subunit beta (Homo sapiens) (UniProt O00750); assay: Selectivity interaction (KinomeScan (DiscoverX)) EUB0000092b PIK3C2B; conditions: at 10 µM
# Sequence of Phosphatidylinositol 4-phosphate 3-kinase C2 domain-containing subunit beta (Homo sapiens) (O00750 whole entry, the tested form may be a part): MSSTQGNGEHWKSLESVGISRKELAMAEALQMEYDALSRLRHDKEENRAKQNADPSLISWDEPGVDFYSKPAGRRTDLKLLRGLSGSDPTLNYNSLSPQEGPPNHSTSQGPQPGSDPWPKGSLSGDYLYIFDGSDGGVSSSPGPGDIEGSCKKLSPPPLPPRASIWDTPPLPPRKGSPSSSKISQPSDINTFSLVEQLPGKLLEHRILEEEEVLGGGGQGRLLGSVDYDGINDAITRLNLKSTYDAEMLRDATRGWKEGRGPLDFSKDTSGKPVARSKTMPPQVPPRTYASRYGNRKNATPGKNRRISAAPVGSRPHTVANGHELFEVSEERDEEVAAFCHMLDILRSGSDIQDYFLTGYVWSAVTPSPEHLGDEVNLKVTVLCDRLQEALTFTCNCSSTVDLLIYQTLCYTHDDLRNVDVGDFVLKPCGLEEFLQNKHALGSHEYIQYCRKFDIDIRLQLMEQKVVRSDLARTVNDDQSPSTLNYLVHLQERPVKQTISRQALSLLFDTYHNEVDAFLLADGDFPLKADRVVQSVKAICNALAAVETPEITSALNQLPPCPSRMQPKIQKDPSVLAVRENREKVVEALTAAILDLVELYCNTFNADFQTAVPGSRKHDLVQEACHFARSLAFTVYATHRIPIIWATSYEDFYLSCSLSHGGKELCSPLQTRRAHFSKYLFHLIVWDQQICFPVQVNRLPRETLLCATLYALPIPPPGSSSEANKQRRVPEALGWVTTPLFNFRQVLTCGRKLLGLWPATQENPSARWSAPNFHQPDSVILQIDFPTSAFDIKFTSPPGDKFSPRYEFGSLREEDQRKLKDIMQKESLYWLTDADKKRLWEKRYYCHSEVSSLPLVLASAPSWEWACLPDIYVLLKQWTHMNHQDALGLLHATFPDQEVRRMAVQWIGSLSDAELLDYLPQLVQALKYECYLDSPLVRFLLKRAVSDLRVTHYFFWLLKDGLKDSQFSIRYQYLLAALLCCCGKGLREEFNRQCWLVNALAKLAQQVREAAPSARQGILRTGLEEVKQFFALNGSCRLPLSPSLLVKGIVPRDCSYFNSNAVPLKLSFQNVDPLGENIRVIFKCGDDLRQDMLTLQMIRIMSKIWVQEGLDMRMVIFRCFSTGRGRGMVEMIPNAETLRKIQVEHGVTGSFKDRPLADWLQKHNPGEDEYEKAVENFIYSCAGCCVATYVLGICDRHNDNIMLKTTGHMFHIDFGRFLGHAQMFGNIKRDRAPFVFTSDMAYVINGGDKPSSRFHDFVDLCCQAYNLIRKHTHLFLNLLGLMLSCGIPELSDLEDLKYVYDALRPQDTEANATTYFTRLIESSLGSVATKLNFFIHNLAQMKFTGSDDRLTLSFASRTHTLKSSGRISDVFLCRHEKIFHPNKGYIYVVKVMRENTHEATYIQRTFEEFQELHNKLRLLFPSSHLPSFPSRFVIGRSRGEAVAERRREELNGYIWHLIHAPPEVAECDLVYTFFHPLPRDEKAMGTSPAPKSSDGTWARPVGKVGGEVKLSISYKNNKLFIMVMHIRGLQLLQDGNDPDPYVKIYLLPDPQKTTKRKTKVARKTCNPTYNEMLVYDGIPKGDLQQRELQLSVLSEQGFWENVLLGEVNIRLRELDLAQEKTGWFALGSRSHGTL
# [7] = target: T3, Cyclin-dependent kinase 11A (Homo sapiens) (UniProt Q9UQ88); assay: Selectivity interaction (KinomeScan (DiscoverX)) EUB0000045b CDK11A
# T3 sequence (whole entry): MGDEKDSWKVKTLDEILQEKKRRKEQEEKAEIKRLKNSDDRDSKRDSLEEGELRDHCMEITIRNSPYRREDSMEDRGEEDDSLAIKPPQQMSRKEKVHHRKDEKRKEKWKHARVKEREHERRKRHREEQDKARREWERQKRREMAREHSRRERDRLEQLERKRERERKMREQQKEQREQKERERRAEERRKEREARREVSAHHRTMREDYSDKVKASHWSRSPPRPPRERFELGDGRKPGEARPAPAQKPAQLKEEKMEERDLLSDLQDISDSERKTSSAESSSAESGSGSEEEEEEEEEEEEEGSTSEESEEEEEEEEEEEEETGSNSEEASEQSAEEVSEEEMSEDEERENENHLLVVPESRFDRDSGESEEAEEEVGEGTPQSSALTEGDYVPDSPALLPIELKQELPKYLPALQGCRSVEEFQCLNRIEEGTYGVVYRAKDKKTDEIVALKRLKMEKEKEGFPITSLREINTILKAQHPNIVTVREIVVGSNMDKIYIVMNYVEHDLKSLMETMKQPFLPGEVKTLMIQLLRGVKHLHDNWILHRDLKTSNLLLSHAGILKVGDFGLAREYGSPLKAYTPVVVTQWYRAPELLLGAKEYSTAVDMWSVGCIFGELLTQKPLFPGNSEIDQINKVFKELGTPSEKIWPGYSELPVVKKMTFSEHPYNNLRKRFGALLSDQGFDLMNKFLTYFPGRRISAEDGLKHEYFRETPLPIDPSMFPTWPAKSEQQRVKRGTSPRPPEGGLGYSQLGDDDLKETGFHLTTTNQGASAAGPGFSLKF
# [8] = target: Macrophage-stimulating protein receptor (Homo sapiens, UniProt Q04912); assay: Selectivity interaction (KinomeScan (DiscoverX)) EUB0000655a MST1R; conditions: at 10 µM
# [9] = target: T4, Ephrin type-A receptor 6 (Homo sapiens) (UniProt Q9UF33); assay: Selectivity interaction (KinomeScan (DiscoverX)) EUB0001619a EPHA6; conditions: at 1 µM
# T4 sequence (whole entry): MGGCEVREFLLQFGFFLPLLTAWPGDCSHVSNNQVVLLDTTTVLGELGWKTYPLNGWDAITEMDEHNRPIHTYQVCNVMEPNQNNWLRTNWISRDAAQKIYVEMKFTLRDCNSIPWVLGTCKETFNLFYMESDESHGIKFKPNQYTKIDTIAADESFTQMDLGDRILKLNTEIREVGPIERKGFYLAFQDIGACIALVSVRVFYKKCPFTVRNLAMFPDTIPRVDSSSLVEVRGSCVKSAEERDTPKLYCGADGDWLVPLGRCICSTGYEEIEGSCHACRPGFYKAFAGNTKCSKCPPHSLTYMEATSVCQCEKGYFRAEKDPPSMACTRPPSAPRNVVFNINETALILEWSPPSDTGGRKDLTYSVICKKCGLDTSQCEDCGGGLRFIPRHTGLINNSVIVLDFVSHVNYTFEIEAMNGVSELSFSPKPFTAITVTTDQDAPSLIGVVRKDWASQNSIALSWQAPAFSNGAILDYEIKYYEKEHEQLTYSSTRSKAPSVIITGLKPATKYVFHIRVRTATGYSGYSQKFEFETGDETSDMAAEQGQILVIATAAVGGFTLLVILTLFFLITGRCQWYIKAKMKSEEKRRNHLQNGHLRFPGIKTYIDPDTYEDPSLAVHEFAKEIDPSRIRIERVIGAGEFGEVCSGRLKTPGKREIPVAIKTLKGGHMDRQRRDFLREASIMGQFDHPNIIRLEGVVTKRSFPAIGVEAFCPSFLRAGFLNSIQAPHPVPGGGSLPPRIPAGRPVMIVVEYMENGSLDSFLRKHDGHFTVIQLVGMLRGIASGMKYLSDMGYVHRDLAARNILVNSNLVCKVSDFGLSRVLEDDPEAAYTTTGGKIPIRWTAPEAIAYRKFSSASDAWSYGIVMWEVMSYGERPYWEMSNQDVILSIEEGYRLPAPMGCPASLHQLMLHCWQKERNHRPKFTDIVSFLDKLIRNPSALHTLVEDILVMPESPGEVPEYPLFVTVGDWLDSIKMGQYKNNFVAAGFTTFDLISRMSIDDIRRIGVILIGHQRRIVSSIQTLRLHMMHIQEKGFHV
# [10] = target: Serine/threonine-protein kinase pim-2 (Homo sapiens, UniProt Q9P1W9); assay: Selectivity interaction (KinomeScan (DiscoverX)) EUB0001619a PIM2; conditions: at 1 µM
# Sequence of Serine/threonine-protein kinase pim-2 (Q9P1W9 whole entry, looked up): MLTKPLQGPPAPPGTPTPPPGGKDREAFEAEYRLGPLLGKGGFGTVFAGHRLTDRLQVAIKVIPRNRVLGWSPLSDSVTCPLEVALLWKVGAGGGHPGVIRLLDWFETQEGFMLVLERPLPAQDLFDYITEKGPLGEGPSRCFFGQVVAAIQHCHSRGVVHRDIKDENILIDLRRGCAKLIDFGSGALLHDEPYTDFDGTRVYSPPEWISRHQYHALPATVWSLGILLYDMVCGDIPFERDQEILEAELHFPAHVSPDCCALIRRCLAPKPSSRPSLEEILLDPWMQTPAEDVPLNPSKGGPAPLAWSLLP
# [11] = target: Homeodomain-interacting protein kinase 1 (Homo sapiens, UniProt Q86Z02); assay: Selectivity interaction (KinomeScan (DiscoverX)) EUB0001619a HIPK1; conditions: at 1 µM
# Sequence of Homeodomain-interacting protein kinase 1 (Q86Z02 whole entry, looked up): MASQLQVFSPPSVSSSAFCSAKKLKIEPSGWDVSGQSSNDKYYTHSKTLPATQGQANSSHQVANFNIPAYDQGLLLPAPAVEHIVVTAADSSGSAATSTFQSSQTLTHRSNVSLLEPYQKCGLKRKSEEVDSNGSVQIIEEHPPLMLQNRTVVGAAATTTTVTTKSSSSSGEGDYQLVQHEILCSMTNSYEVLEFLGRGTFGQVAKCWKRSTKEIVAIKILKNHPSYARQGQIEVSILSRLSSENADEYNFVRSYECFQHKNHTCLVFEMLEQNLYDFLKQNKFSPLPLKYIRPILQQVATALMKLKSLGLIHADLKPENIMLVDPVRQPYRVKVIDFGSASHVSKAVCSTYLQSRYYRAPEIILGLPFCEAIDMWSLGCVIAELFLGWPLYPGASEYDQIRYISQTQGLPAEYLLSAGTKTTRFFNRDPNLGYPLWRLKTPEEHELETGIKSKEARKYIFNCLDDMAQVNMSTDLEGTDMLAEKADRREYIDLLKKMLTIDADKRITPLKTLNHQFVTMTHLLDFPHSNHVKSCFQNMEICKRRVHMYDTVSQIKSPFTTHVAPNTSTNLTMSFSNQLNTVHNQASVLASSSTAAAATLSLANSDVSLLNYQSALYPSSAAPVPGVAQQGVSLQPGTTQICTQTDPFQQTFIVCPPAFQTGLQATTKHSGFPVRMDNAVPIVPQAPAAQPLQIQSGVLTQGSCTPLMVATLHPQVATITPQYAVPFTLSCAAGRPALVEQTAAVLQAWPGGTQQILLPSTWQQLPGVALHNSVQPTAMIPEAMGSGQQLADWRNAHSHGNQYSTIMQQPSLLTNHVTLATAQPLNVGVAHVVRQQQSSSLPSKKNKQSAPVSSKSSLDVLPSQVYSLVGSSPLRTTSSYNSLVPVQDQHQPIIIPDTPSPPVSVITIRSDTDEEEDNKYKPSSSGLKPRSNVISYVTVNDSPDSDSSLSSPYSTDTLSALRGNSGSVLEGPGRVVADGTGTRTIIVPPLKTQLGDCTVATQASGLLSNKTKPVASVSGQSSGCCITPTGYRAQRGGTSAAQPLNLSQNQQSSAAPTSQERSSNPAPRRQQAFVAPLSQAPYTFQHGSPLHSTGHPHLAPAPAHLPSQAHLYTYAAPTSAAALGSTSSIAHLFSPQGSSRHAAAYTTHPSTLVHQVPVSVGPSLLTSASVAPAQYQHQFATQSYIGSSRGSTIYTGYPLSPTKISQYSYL
# [12] = target: T1, Rho-associated protein kinase 2; assay: Selectivity interaction (KinomeScan (DiscoverX)) EUB0000618a ROCK2; conditions: at 10 µM
# [13] = target: Tyrosine-protein kinase FRK (Homo sapiens) (UniProt P42685); assay: Selectivity interaction (KinomeScan (DiscoverX)) EUB0000666a FRK; conditions: at 10 µM
# Sequence of Tyrosine-protein kinase FRK (Homo sapiens) (P42685 whole entry): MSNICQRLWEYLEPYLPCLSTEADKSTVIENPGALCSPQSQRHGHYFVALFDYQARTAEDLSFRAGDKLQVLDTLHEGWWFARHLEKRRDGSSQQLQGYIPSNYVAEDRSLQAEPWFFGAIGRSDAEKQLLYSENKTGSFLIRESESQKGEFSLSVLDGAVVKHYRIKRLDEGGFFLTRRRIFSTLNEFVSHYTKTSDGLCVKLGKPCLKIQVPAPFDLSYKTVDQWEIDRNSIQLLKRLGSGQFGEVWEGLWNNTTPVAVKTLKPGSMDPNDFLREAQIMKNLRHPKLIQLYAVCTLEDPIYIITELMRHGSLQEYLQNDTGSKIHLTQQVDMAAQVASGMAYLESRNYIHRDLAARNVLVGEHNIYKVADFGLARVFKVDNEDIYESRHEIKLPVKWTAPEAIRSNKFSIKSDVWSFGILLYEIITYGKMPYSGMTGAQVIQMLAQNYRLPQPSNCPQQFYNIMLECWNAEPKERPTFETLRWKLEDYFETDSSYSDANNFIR
# T1 sequence (O75116 whole entry, looked up): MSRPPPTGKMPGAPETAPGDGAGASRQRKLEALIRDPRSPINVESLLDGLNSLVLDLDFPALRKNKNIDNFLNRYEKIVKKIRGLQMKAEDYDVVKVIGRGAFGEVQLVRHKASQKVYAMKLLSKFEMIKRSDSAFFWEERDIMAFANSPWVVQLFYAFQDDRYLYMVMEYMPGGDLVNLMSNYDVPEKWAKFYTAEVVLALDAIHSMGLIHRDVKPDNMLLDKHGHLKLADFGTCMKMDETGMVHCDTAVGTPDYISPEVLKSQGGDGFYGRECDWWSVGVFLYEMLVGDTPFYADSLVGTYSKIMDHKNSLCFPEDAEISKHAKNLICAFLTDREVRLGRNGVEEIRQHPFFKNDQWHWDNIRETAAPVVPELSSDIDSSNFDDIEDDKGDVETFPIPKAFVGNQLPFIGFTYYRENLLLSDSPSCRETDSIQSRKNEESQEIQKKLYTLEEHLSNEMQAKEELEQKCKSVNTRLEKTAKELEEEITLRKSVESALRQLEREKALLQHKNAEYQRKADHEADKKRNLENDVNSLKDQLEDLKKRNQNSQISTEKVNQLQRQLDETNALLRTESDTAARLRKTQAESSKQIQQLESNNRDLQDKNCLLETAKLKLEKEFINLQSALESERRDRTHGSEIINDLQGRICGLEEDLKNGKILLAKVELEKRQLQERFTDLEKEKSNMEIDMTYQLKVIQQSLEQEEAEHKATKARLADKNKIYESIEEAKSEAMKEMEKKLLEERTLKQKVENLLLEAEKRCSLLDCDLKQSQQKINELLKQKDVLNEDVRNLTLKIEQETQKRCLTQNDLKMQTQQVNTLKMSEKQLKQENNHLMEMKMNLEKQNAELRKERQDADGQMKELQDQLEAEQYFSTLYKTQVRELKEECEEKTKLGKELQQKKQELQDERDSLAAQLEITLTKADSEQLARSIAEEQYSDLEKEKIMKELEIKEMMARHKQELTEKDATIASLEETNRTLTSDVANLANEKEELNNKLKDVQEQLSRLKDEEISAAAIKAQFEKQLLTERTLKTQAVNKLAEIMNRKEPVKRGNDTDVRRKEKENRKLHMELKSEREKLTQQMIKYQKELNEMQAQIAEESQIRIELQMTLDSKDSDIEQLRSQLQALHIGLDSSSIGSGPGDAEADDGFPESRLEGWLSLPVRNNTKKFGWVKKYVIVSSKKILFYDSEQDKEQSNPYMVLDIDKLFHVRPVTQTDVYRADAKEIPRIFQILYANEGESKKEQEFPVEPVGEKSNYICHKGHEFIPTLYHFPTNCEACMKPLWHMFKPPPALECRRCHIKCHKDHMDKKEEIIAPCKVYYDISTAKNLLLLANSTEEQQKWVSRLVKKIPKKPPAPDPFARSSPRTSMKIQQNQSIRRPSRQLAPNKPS
compound,measurement,setting,value
Cc1cc([C@@H](C)Nc2ccccc2C(=O)O)c2nc(N3CCOCC3)cc(=O)n2c1 [AZD-6482],% of control,[1],91%
Cn1cc(-n2cnc3c(NCc4nc5cc(Cl)c(Cl)cc5[nH]4)nc(N4CCOCC4)nc32)cn1,% of inhibition,[2],-208%
same,% of control,[3],4.54%
COCC(=O)NC/C=C/c1ccc2ncnc(Nc3ccc(Oc4ccc(C)nc4)c(C)c3)c2c1 [CP-724714],% of control,[4],0%
COc1cc(N(C)c2ccnc3ccc(C(F)(F)F)cc23)cc(OC)c1OC,% binding,[5],100%
CCC(=O)N1CCN(c2ccc(-n3c(=O)ccc4cnc5ccc(-c6cnc7ccccc7c6)cc5c43)cc2C(F)(F)F)CC1,% of control,[6],25%
C=CC(=O)Nc1cc(-n2c(=O)ccc3cnc4ccc(-c5ccc(NS(C)(=O)=O)cc5)cc4c32)ccc1C,% of control,[7]; at 1 µM,90%
same,% of control,[7]; at 10 µM,44%
CN(C)CCOc1ccc(-c2nc(-c3ccncc3)c(-c3ccc4c(c3)CC/C4=N\O)[nH]2)cc1,% of control,[8],100%
N#Cc1cccc(-c2c[nH]c3ncnc(N4CCOCC4)c23)c1,% of control,[9],100%
same,% of control,[10],100%
same,% of control,[11],77%
O[C@H]1CC[C@H](Nc2ncc3nc(Nc4c(F)cc(F)cc4F)n([C@H]4CCOC4)c3n2)CC1,% of control,[12],100%
O=C(NOC[C@H](O)CO)c1ccc(F)c(F)c1Nc1ccc(I)cc1F,% of control,[13],60%
